Data from article PMC10937676, “Targeting the NTSR2/TrkB oncogenic pathway in chronic lymphocytic leukemia” (Scientific Reports, 2024).

Legend:
[1] = test system: BCL-XL; test: Immunoblot, relative level of anti-apoptotic protein BCL-XL in CLL-B cells; type: cell-based, human; conditions: CLL-B cells from 10 patients, overnight, 10 µM
Excerpt: Concerning anti-apoptotic protein expression, a decrease in anti-apoptotic proteins BCL-2; BCL-XL and MCL-1 was observed after TAT-Pep treatment of CLL-B cells, possibly as a consequence of the SRC kinase inactivation (Fig. 6A–C). To unveil whether the regulation mechanism behind the observed modifications was transcriptional or post-transcriptional, we evaluated the mRNA levels of all three anti-apoptotic proteins following peptide treatment. […] To further underline that the induction of cell death following TAT-Pep treatment involved apoptosis regulation pathways, we used B cells from six CLL patients and stained them with Annexin V in both TAT-Pep treated and untreated conditions. […]
Figure 6 The peptide lowers anti-apoptotic proteins levels. […] CLL-B cells from 12 patients were incubated overnight, with or without 10 µM of TAT-Pep, subsequently RNA was extracted from cell lysates and mRNA levels of BCL-2 (D); BCL-XL (E) and MCL-1 (F) were evaluated using RTqPCR; 18S was used as a housekeeping gene. (G) Increased concentrations (0 to 30 µM) of TAT-Pep were incubated with 20,000 CLL-B, and the number of Annexin V-positive cells was measured using the Incucyte live-cell imaging device. Fluorescence was monitored for 48 h. […] The ‘Green Object Count/Phase Object Count’ ratio was determined using the Incucyte analysis software to obtain the percentage of apoptotic cells. […]

[2] = test system: MEC-1 cell line; test: Cytotoxicity on the MEC-1 cell line (Incucyte, Cytotox Dye); type: cell-based; conditions: 0 to 100 µM peptide, fluorescence monitored for 24 h, read-out: IC50, cell death
Protocol: The cytotoxicity of the peptides was initially assessed on the MEC-1 cell line to determine their IC50.
Figure 3 Cytotoxicity of the peptide in vitro and ex vivo. (A) Determination of the cytotoxicity of Pep and TAT-Pep peptides on the MEC-1 cell line. Increased concentrations (0 to 100 µM) of Pep and TAT-Pep were incubated with the MEC-1 cell line, and the number of dead cells was measured using the Incucyte live-cell imaging device with Cytotox Dye (green). Fluorescence was monitored for 24 h. (B) Measurement of the cytotoxicity of the TAT-Pep peptide on CLL-B cells from patients. Increased concentrations (0 to 30 µM) of TAT-Pep were incubated with CLL-B cells, and the number of dead cells was measured using the Incucyte live-cell imaging device with Cytotox Dye (green). Fluorescence was monitored for 48 h. […] In all analyses, the ‘Green Object Count/Phase Object Count’ ratio was determined using the Incucyte analysis software to obtain the percentage of dead cells. The area under the curve for each condition was then calculated, and they were compared using a t-test. […]
Cell viability and survival were monitored using the IncucyteS3 system (Sartorius), a live-cell imaging device enabling the tracking of fluorescence over set periods of time[41],[42]. […] The area under the curve for each condition was then calculated, and they were compared using a t-test. […]

GRKKRRQRRRPPQNAVSSSFRKLFLEAVSSLCGEHHPMKRLPPKPQSPTLMDTASGFGDPPETRT [TAT-Pep]
level of anti-apoptotic protein BCL-XL (in words) [1]: decrease | IC50 [2]: 10 µM
